# In US8603986B2, “Compounds and methods for modulating cadherin-mediated processes” (McGill University, priority 2005, dated 2013):
# Marks after values point to notes of the source that are not given here.
# How the values were obtained:
# [1] = test system: SKOV3 human ovarian cancer cells; test: Disruption of SKOV3 cell adhesion in confluent cultures; format: cell-based; set-up: key to Peptide Disrupts Adhesion of SKOV3 cells: +: yes; −: no; conditions: for Peptide Disrupts Adhesion of SKOV3 cells: Table 8 summary
# Experimental: SKOV3 human ovarian cancer cells (kind gift from Dr. Riaz Farookhi, McGill University, Montreal, Quebec) were cultured in MEM containing 1.25 μg/ml Fungizone, 100 U/ml penicillin 100 μg/ml streptomycin, 0.1 mM nonessential amino acids, 2 mM L-glutamine, 10 μg/ml ml gentamicin and 10% fetal bovine serum. All culture reagents were purchased from GIBCO (Burlington, ON). To obtain confluent cell cultures, 100,000 cells per well were plated onto a 4 well slide (NalgeNunc, Naperville, Ill.) and incubated for 24 h at 37° C., in a humidified atmosphere (5% CO2).
# (§1) Depending on their solubility, peptides were dissolved directly in culture medium and added to confluent cell cultures at the indicated concentration, or they were dissolved in dimethylformamide (DMF) to obtain a 100× concentrated solution or in water to obtain a 10× concentrated solution. The peptide stock solutions were further diluted with culture medium to a final working concentration and added to confluent cell cultures. Culture medium containing 1% solvent was used as a control. At the end of the treatment, cells were either examined by phase contrast microscopy, or fixed with 4% paraformaldehyde in PBS and stained with hematoxylin prior to light microscopic examination.
# Confluent cultures of SKOV3 cells were incubated in the presence of individual peptides.
# [2] = test system: MCF-7 human breast cancer cells; test: Disruption of MCF-7 cell adhesion; format: cell-based; set-up: key to Peptide Disrupts Adhesion of MCF-7 cells: +: yes; −: no; conditions: for Peptide Disrupts Adhesion of MCF-7 cells: Table 8 summary
# Experimental: MCF-7 human breast cancer cells (kind gift from Dr. Riaz Farookhi, McGill University, Montreal, Quebec) were cultured in the same medium as SKOV3 but supplemented with 1 mM sodium pyruvate.
# as §1
# [3] = target: T1, N-cadherin/Fc chimeric protein (Homo sapiens, UniProt P19022); test: Table 8 summary: peptide binds to N-cad/Fc; format: binding; set-up: key: +: yes; −: no
# T1 construct: extracellular domain of human N-cadherin (Asp160-Ala724); purchased R&D Systems, Minneapolis, Minn
# T1 sequence (P19022 160-724): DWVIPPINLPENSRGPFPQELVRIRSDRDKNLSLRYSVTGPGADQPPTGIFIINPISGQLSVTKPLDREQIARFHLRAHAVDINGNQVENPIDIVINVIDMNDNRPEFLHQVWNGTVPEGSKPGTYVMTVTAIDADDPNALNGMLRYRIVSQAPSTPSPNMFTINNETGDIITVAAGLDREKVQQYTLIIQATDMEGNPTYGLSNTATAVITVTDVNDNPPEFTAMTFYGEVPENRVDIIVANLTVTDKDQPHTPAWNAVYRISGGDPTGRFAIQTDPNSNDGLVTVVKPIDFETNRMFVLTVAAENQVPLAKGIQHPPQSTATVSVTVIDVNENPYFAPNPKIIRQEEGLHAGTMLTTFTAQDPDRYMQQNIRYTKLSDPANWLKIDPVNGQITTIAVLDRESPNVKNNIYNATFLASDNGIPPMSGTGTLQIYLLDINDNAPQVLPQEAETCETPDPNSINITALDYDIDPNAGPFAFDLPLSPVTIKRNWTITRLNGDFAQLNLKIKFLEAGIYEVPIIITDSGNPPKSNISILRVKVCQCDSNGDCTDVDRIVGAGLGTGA
# [4] = target: T2, E-cadherin/Fc chimeric protein (Homo sapiens, UniProt P12830); test: Table 8 summary: peptide binds to E-cad/Fc; format: binding; set-up: key: +: yes; −: no
# T2 construct: extracellular domain of human E-cadherin (Asp155-Ile707); purchased R&D Systems, Minneapolis, Minn
# T2 sequence (P12830 155-707): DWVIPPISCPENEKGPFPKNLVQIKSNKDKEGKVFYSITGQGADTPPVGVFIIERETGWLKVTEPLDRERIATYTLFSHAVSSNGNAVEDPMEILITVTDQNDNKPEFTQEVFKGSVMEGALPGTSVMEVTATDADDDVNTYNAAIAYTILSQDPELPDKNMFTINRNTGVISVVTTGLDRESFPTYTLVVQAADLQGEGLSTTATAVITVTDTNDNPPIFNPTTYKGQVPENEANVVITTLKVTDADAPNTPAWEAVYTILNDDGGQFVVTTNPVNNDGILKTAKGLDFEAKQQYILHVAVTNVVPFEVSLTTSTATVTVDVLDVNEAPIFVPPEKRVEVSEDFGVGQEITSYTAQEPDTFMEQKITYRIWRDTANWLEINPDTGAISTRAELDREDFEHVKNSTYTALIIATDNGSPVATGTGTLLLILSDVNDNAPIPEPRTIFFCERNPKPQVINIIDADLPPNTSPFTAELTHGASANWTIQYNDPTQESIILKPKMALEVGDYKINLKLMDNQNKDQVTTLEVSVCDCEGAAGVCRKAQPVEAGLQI
# [5] = test system: Human Umbilical Vein Endothelial Cells (HUVEC); test: Disruption of HUVEC adhesion; format: cell-based; set-up: key to Peptide Disrupts Adhesion of HUVEC: +: yes; −: no; conditions: for Peptide Disrupts Adhesion of HUVEC: Table 8 summary
# Experimental: (§2) Human Umbilical Vein Endothelial Cells (HUVEC) and Human Dermal Microvascular Endothelial Cells (HMVEC-d) were purchased from Cambrex Bio Science Walkersville, Inc. Clonetics EGM-2 and EGM-2-MV Bulletkits (Cambrex Bio Science Walkersville, Inc) were used to culture HUVEC and HMVEC-d respectively. Cells (40,000 per well) were plated onto a 4 well slide (NalgeNunc, Naperville, Ill.) and incubated at 37° C., in a humidified atmosphere (5% CO2).
# as §1
# [6] = test system: Human Dermal Microvascular Endothelial Cells (HMVEC-d); test: Disruption of HMVEC adhesion; format: cell-based; set-up: key to Peptide Disrupts Adhesion of HMVEC: +: yes; −: no; conditions: for Peptide Disrupts Adhesion of HMVEC: Table 8 summary
# Experimental: as §2, §1
# [7] = target: T1, N-cadherin/Fc chimeric protein; test: Surface plasma resonance (Biacore) analysis on N-cadherin/Fc; format: binding
# Experimental: (§3) The binding of representative peptide modulating agents to either N- or VE-cadherin/Fc chimeric proteins was assessed using a BIAcore X™ Biosensor (Pharmacia Ltd., Sweden). Goat anti-human IgG recognizing N- and VE-cadherin/Fc chimeric proteins (R&D Systems, Minneapolis, Minn.) was immobilized on a CM5 sensor chip (Biacore S51) using standard amine-coupling method at 25° C. HBS-P buffer (10 mM HEPES, 0.15 M NaCl, 0.005% p20, pH 7.4) was used as the running buffer. The carboxymethyl dextran surface was activated with a 7 min injection of a 1:1 ratio of 0.4 M EDC and 0.1 M NHS. The goat anti-human IgG (Caltag Lab.) was coupled to the surface with a 7 min injection diluted in 10 mM sodium acetate, pH 5.0 to a final concentration 80 ug/ml. Remaining activated groups were blocked with a 7 min injection of 1 M ethanolamine, pH 8.5. N- and VE-cadherin/Fc chimeric proteins were dissolved in buffer containing 50 mM Tris HCl, 150 mM NaCl, and 1.2 mM CaCl2 pH 7.5 to a concentration of 0.2 μM and captured on spots 1 and 2 at a flow rate of 30 μl/min for 30 min with resulting density 927 RU for N-cadherin/Fc chimeric protein and 1008 RU for VE-cadherin/Fc chimeric protein.
# The linear peptide H-SWTLYTPSGQSK-NH2 (SEQ ID NO: 16) and the control linear peptide H-SRTLYTPSGQSK-NH2 (SEQ ID NO: 58) were passed over surfaces coated with captured N- and VE-cadherin/Fc chimeric proteins in running buffer containing 50 mM Tris-HCl, 150 mM NaCl, and 1.2 mM CaCl2, pH 7.5 at concentrations ranging from 100-1.56 uM. The experiment was performed at a flow rate 90 ul/min at 25° C. […] All responses were referenced for reference surface and blank injections of running buffer.
# [8] = target: T3, VE-cadherin/Fc chimeric protein (Homo sapiens, UniProt P33151); test: Surface plasma resonance (Biacore) analysis on VE-cadherin/Fc; format: binding; conditions: 100-1.56 uM
# T3 construct: purchased R&D Systems, Minneapolis, Minn
# Experimental: as §3, with “protein. […]” for “protein.”
# [9] = confluent cultures, concentration not given
# [10] = 1 mg/ml medium, up to 1 h incubation
# T3 sequence (P33151 with tags, fused parts or gaps limits assumed, species assumed): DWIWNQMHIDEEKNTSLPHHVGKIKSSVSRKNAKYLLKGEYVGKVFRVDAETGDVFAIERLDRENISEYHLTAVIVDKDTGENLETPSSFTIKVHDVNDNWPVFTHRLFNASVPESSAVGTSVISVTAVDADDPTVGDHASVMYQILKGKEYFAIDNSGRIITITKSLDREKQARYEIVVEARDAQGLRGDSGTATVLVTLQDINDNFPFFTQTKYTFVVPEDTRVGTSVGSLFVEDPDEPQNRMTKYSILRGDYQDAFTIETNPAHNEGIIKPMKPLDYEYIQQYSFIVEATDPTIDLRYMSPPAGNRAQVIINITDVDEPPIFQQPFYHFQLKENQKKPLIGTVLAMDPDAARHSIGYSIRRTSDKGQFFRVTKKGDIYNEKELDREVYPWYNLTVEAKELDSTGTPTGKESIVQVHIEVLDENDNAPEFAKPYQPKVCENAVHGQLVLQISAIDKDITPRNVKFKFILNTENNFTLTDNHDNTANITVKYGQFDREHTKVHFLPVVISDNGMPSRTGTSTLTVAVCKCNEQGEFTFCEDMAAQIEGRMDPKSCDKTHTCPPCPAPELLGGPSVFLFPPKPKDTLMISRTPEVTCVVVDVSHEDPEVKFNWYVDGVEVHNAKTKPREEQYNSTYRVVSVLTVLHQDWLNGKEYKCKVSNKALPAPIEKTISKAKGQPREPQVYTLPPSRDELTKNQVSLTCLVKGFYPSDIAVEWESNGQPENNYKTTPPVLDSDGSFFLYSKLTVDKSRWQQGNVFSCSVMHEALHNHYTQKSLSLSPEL
Peptide Binds to N-cad/Fc [3],Peptide Binds to E-cad/Fc [4],Substance,Peptide Disrupts Adhesion of SKOV3 cells [1],Peptide Disrupts Adhesion of MCF-7 cells [2],"effect on HUVEC adhesion [5, 10]",Peptide Disrupts Adhesion of HUVEC [5],further results
+#,−##,H-WYVCVGAH-NH2,+,−,,,"effect on SKOV3 cell adhesion and morphology ([1]; 100 and 150 μg/ml (tested 50, 100 and 150 μg/ml medium), 24 h): capable of disrupting cell adhesion and altering cell morphology; culture time after which the effect on SKOV3 cell adhesion was evident ([1]; more pronounced after 24 h): 9 h; effect on MCF-7 cell adhesion ([2]; 100 μg/ml): did not affect MCF-7 cell adhesion"
−,,H-SRTLYTPSGQSK-NH2 [reference compound],−,,had no biological activity,−,"effect on SKOV3 cell adhesion [1, 9]: had no effect; Peptide Disrupts Adhesion of HMVEC [6]: −; effect on HMVEC adhesion ([6]; highest concentration of 1 mg/ml): had no biological activity; binding to N-cadherin/Fc chimeric protein ([7]; 100-1.56 uM): did not bind; binding to VE-cadherin/Fc chimeric protein [8]: did not bind"
+,−,H-HWYITTGPVREK-NH2,,,had no effect on HUVEC adhesion,−,
+,+,H-EWMIHYDSALTS-NH2,+,+,,,effect on SKOV3 cell adhesion ([1]; 1 mg/ml): disrupted; effect on MCF-7 cell adhesion ([2]; 1 mg/ml): disrupted
+,−,H-WELRVSSP-NH2,+,,,,"effect on cell adhesion and cell morphology ([1]; 0.5 mg/ml, SKOV3 per b307 and Table 8): capable of disrupting cell adhesion and altering cell morphology"

Substance,Peptide Binds to N-cad/Fc [3],Peptide Binds to E-cad/Fc [4],Peptide Disrupts Adhesion of SKOV3 cells [1],Peptide Disrupts Adhesion of MCF-7 cells [2],"effect on HUVEC adhesion [5, 10]",Peptide Disrupts Adhesion of HUVEC [5],further results
H-SWELYYPLRANL-NH2,+,+,+,+,,,effect on SKOV3 cell adhesion ([1]; 1 mg/ml): disrupted; effect on MCF-7 cell adhesion ([2]; 1 mg/ml): disrupted
H-SWTLYTPSGQSK-NH2 [H-SWTLYTPSGQSK-NH2],+,−,+,−,disrupted HUVEC adhesion,+,"effect on SKOV3 cell adhesion [1, 9]: disrupted SKOV3 cell adhesion; effect on MCF-7 cell adhesion ([2]; concentration not given): did not affect MCF-7 cell adhesion; effect on HUVEC adhesion ([5]; 0.062 mg/ml, 1 h incubation): moderate activity; incubation time after which HUVEC adhesion was disrupted ([5]; 1 mg/ml medium): 5 min; incubation time of maximum effect on HUVEC adhesion ([5]; 1 mg/ml medium): 1 h; peptide concentrations disrupting HUVEC adhesion ([5]; after 1 h incubation, dose-dependent): ≥ 0.125 mg/mL; effect on HMVEC adhesion ([6]; 0.062 mg/ml): disrupted; effect on HMVEC adhesion ([6]; 0.125 mg/ml): more pronounced effects; effect on HMVEC adhesion ([6]; 0.5 mg/ml and higher): still stronger effects; Peptide Disrupts Adhesion of HMVEC [6]: +; Kd ([7]; 25° C., 1.2 mM CaCl2): 66 µM; kd ([7]; 25° C., 1.2 mM CaCl2): 0.407(8) s^−1; kon ([7]; pH 7.5, 25° C., 1.2 mM CaCl2, read-out: ka): 6100 M⁻¹ s⁻¹; binding to VE-cadherin/Fc chimeric protein [8]: did not bind"
